Assay results as given in patent US20230321103A1, “COMPOUND FOR INHIBITING MUTANT EGFR AND USE THEREOF” (East China University of Science and Technology, priority 2020, published 2023).
pIC50: −log10 of the molar value.

Columns and labels:
EGFR (D770_N771insNPG) = biological target: T1, EGFR (D770_N771insNPG) (Homo sapiens, UniProt P00533, INS770NPG); test: Kinase spectrum evaluation, radiometric 33P-ATP kinase assay; type: biochemical; details: room temperature 2 h, 10 concentration gradients
T1 construct: purchased Reaction Biology Corporation (commissioned test)
Description: (§15) The substrate for the kinase reaction was placed in a freshly prepared reaction buffer and the co-factors required for the kinase reaction were added, and the buffer was prepared as: 20 mM HEPES (pH 7.5), 10 mM MgCl2, 1 mM EGTA, 0.02% Brij35, 0.02 mg/mL BSA, 0.1 mM Na3VO4, 2 mM DTT, 1% DMSO; afterwards, the kinase to be tested was added and gently shaken. The compound to be tested was dissolved in DMSO to the desired concentration and added to the above buffer containing the kinase/substrate using an autosampler Echo550. 33P-labeled ATP (33P-ATP at a final concentration of 0.01 μCi/μL) was added to the reaction system to initiate the kinase reaction at room temperature for 2 h. […] Kinase activity data were expressed as a percentage of the remaining kinase activity in the test sample, 10 concentration gradients were measured, a curve was fitted and IC50 values were calculated using Prism4 (GraphPad software).

ERBB2 (D769Y) = biological target: T2, ERBB2 (D769Y) (Homo sapiens, UniProt P04626, D769Y); test: as above; type: biochemical; details: room temperature 2 h, 10 concentration gradients
T2 construct: purchased Reaction Biology Corporation (commissioned test)
Description: as §15

EGFR (A763_Y764insFQEA) = biological target: T3, EGFR (A763_Y764insFQEA) (Homo sapiens, UniProt P00533, INS763FQEA); test: as above; type: biochemical; details: room temperature 2 h, 10 concentration gradients
T3 construct: purchased Reaction Biology Corporation (commissioned test)
Description: as §15

EGFR (A763_Y764insFHEA) = biological target: T4, EGFR (A763_Y764insFHEA) (Homo sapiens, UniProt P00533, INS763FHEA); test: as above; type: biochemical; details: room temperature 2 h, 10 concentration gradients
T4 construct: purchased Reaction Biology Corporation (commissioned test)
Description: as §15

EGFR (G719D) = biological target: T5, EGFR (G719D) (Homo sapiens, UniProt P00533, G719D); test: as above; type: biochemical; details: room temperature 2 h, 10 concentration gradients
T5 construct: purchased Reaction Biology Corporation (commissioned test)
Description: as §15

ERBB2 (V777_G778insCG) = biological target: T6, ERBB2 (V777_G778insCG) (Homo sapiens, UniProt P04626, INS777CG); test: as above; type: biochemical; details: room temperature 2 h, 10 concentration gradients
T6 construct: purchased Reaction Biology Corporation (commissioned test)
Description: as §15

EGFR (G719S) = biological target: T7, EGFR (G719S) (Homo sapiens, UniProt P00533, G719S); test: as above; type: biochemical; details: room temperature 2 h, 10 concentration gradients
T7 construct: purchased Reaction Biology Corporation (commissioned test)
Description: as §15

ERBB2 (V777L) = biological target: T8, ERBB2 (V777L) (Homo sapiens, UniProt P04626, V777L); test: as above; type: biochemical; details: room temperature 2 h, 10 concentration gradients
T8 construct: purchased Reaction Biology Corporation (commissioned test)
Description: as §15

EGFR (L861Q) = biological target: T9, EGFR (L861Q) (Homo sapiens, UniProt P00533, L861Q); test: as above; type: biochemical; details: room temperature 2 h, 10 concentration gradients
T9 construct: purchased Reaction Biology Corporation (commissioned test)
Description: as §15

EGFR (G719C) = biological target: T10, EGFR (G719C) (Homo sapiens, UniProt P00533, G719C); test: as above; type: biochemical; details: room temperature 2 h, 10 concentration gradients
T10 construct: purchased Reaction Biology Corporation (commissioned test)
Description: as §15

EGFR (D770GY) = biological target: T11, EGFR (D770GY) (Homo sapiens, UniProt P00533, D770Y/INS769G); test: as above; type: biochemical; details: room temperature 2 h, 10 concentration gradients
T11 construct: purchased Reaction Biology Corporation (commissioned test)
Description: as §15

[1] = biological target: T12, EGFR (D770_N771insNPG/T790M) (Homo sapiens, UniProt P00533, INS770NPG/T790M); test: as above; type: biochemical; details: room temperature 2 h, 10 concentration gradients
T12 construct: purchased Reaction Biology Corporation (commissioned test)
Description: as §15

EGFR (D761Y) = biological target: T13, EGFR (D761Y) (Homo sapiens, UniProt P00533, D761Y); test: as above; type: biochemical; details: room temperature 2 h, 10 concentration gradients
T13 construct: purchased Reaction Biology Corporation (commissioned test)
Description: as §15

[2] = test system: EGFR V769_D770insASV BaF3; test: Proliferation inhibition assay on stable cell lines (CTG Assay); type: cell-based; details: Mus musculus, 72 hours, CellTiter-Glo
Description: (§1) Ba/F3, a mouse pro-B cell line dependent on interleukin-3, is a common system for studying kinases and kinase inhibitors. Recombinant expression of some protein kinases can make Ba/F3 cells no longer dependent on IL-3 for growth, and based on such properties, the inhibition of a compound on the proliferation of Ba/F3 cells expressing different target kinases can be detected, so as to reflect inhibitory effects of the compound on different kinase targets at the cellular level for kinase inhibitor screening.
(§2) CellTiter-Glo® Luminescent Cell Viability Assay was employed in this experiment to detect cell proliferation, and the specific principles are as follows:
(§3) Adenosine Tri-Phosphate (ATP) is a common energy carrier used in various life activities in nature and is the smallest unit of energy storage and transfer. In the CellTiter-Glo™ Live Cell Assay Kit, […] are used as detectors, which require the participation of ATP to generate light signals. After the CellTiter-Glo™ reagent is added to the cells, the luminescence value is measured. The light signal is proportional to the amount of ATP in the system, which is in turn positively correlated with the number of living cells. Therefore, by measuring the ATP content using the CellTiter-Glo kit, the viability of the cells and thus the level of cell proliferation can be reflected.
(§4) Cells were removed from the liquid nitrogen, quickly thawed in a water bath at 37 degree Celsius, lyophilization tubes were centrifuged at 1000 rpm, the supernatant of the lyophilized solution was discarded, and the cells were resuspended in RPMI1640+10% FBS medium and incubated in a cell culture incubator at 37 degree Celsius with a cell culture density maintaining at 2*10e5 to 2*10e6/ml at all times.
(§5) 1) The compound were serially diluted in DMSO in a compound formulation plate with a starting concentration of 1 or 10 mM and a gradient dilution of 3.
(§6) 2) A new compound formulation plate was prepared, 198 ul of RPMI160+10% FBS medium was added to each well, 2 ul/well of compound from the previous gradient-diluted compound formulation plate was transferred to this plate and mixed well, so that the highest starting compound concentration in this plate was […], and diluted by gradient (this plate was a 10* compound concentration dilution plate).
(§7) 1) Cells in logarithmic growth phase were taken, the supernatant was discarded by centrifugation, and the cells were re-suspended in a fresh RPMI1640 medium at a cell density of 2*10e4/ml.
(§8) 2) The re-suspended cells were inoculated into 2 96-well cell culture plates with white walls and clear bottom at 100 ul of cell suspension/well, and incubated overnight in a 37° C. cell incubator.
(§9) 3) The next day, one of the 96-well plates inoculated with cells were taken, 100 µl/well of cell titer glo assay reagent was added for 60 minutes, the value was read and defined as G0 data.
(§10) 4) Another parallel plate was taken, 11.1 ul/well of compound from the previously diluted 10* compound concentration dilution plate was added to this plate, so that the final concentration of compound in the cell assay plate started from 0.5 or 1 uM, which was 3-fold diluted for 9 concentration gradients. Additional DMSO control wells were set, and incubated in a 37° C. cell incubator for another 72 hours.
(§11) 5) The 96-well plate, in which cells were treated by the compound for 72 hrs, were taken from the incubator, 100 ul/well of cell titer glo assay reagent was added for 60 minutes, the value was read and defined as G3 data.
(§12) 6) The cell proliferation rate corresponding to each well was calculated according to the following formula
(§13) % prolifation=(G3 of the well of the compound to be tested−mean value of G)/(mean value of G3 of the DMSO control well−mean value of G0)*100.
(§14) Y=Bottom+(Top−Bottom)/(1+10^((Log IC50−X)*HillSlope))

EGFR G719A BaF3 = test: as above; type: cell-based; details: Mus musculus, 72 hours, CellTiter-Glo
Description: as §1, §2, §3, §4, §5, §6, §7, §8, §9, §10, §11, §12, §13, §14

[3] = test system: EGFR D770_N771insNPG BaF3; test: as above; type: cell-based; details: Mus musculus, 72 hours, CellTiter-Glo
Description: as §1, §2, §3, §4, §5, §6, §7, §8, §9, §10, §11, §12, §13, §14

[4] = test system: EGFR D770_N771insSVD BaF3; test: as above; type: cell-based; details: Mus musculus, 72 hours, CellTiter-Glo
Description: as §1, §2, §3, §4, §5, §6, §7, §8, §9, §10, §11, §12, §13, §14

EGFR H773_V774insH BaF3 = test: as above; type: cell-based; details: Mus musculus, 72 hours, CellTiter-Glo
Description: as §1, §2, §3, §4, §5, §6, §7, §8, §9, §10, §11, §12, §13, §14

EGFR L861Q BaF3 = test: as above; type: cell-based; details: Mus musculus, 72 hours, CellTiter-Glo
Description: as §1, §2, §3, §4, §5, §6, §7, §8, §9, §10, §11, §12, §13, §14

EGFR (d747-749/A750P) = biological target: T14, EGFR (d747-749/A750P) (Homo sapiens, UniProt P00533, A750P/DEL747-749); test: Kinase spectrum evaluation, radiometric 33P-ATP kinase assay; type: biochemical; details: room temperature 2 h, 10 concentration gradients
T14 construct: purchased Reaction Biology Corporation (commissioned test)
Description: as §15

EGFR (d746-750) = biological target: T15, EGFR (d746-750) (Homo sapiens, UniProt P00533, DEL746-750); test: as above; type: biochemical; details: room temperature 2 h, 10 concentration gradients
T15 construct: purchased Reaction Biology Corporation (commissioned test)
Description: as §15

EGFR (L858R) = biological target: T16, EGFR (L858R) (Homo sapiens, UniProt P00533, L858R); test: as above; type: biochemical; details: room temperature 2 h, 10 concentration gradients
T16 construct: purchased Reaction Biology Corporation (commissioned test)
Description: as §15

EGFR = biological target: T17, EGFR (Homo sapiens, UniProt P00533); test: as above; type: biochemical; details: room temperature 2 h, 10 concentration gradients
T17 construct: purchased Reaction Biology Corporation (commissioned test)
Description: as §15

T13 sequence (P00533 25-1210 D761Y): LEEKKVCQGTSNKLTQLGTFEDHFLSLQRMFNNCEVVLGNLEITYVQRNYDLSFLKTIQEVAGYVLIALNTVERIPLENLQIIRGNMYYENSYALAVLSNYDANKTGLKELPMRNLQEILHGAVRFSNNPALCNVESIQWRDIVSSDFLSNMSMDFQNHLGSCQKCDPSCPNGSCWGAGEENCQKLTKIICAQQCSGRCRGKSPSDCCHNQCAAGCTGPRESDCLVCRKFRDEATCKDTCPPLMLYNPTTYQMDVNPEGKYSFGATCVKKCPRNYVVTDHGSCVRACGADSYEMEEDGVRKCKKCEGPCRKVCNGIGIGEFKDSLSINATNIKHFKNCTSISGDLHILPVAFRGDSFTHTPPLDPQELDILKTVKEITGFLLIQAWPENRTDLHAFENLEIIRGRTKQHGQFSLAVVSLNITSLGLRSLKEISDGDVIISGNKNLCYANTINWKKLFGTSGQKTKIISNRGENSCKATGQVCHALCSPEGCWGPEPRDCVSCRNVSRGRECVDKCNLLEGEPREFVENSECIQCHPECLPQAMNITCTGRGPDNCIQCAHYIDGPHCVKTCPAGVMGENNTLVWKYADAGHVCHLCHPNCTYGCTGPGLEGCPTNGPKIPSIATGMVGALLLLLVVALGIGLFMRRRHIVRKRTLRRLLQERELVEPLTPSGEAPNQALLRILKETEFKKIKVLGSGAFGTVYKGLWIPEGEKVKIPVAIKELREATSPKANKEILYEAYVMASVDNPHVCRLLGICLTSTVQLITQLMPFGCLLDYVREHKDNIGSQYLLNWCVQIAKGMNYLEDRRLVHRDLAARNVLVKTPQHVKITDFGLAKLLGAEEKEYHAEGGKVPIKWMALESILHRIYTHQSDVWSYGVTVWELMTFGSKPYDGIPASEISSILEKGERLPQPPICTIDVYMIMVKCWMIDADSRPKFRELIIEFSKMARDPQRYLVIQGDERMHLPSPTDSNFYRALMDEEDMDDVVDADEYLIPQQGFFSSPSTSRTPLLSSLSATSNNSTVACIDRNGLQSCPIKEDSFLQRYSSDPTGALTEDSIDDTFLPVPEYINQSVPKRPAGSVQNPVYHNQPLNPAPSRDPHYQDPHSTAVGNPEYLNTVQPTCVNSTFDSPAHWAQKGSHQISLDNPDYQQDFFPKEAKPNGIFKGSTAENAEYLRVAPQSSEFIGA
T5 sequence (P00533 25-1210 G719D): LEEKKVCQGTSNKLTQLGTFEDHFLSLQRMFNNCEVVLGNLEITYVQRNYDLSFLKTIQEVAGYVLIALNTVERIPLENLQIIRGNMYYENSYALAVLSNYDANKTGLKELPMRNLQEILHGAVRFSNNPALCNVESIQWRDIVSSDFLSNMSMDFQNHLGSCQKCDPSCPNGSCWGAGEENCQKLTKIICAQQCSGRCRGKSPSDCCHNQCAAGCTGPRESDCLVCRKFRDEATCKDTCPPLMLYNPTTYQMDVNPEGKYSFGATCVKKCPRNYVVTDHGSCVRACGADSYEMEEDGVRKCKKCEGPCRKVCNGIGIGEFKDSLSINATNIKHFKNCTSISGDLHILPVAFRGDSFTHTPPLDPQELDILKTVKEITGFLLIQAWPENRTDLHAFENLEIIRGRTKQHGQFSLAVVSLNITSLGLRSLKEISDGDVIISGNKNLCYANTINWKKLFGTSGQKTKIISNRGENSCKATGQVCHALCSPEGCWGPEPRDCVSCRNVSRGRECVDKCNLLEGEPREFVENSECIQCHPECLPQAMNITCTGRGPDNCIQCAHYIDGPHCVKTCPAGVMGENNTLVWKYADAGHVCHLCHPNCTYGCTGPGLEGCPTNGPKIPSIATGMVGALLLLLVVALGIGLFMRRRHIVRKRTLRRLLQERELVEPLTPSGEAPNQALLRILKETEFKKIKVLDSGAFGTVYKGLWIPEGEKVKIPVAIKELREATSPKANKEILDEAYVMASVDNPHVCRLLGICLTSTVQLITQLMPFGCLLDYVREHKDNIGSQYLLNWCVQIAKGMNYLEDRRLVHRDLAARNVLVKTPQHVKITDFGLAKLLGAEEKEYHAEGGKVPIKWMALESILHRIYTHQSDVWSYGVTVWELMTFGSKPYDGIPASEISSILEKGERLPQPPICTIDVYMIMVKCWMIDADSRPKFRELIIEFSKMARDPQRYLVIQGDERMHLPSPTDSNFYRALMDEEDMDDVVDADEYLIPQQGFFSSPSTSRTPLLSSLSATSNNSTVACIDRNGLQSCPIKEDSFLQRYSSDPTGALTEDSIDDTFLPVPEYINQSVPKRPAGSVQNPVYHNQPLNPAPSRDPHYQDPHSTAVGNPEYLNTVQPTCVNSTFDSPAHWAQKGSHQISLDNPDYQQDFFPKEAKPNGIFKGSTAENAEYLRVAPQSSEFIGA
T11 sequence (P00533 with tags, fused parts or gaps INS769G/D770Y limits assumed): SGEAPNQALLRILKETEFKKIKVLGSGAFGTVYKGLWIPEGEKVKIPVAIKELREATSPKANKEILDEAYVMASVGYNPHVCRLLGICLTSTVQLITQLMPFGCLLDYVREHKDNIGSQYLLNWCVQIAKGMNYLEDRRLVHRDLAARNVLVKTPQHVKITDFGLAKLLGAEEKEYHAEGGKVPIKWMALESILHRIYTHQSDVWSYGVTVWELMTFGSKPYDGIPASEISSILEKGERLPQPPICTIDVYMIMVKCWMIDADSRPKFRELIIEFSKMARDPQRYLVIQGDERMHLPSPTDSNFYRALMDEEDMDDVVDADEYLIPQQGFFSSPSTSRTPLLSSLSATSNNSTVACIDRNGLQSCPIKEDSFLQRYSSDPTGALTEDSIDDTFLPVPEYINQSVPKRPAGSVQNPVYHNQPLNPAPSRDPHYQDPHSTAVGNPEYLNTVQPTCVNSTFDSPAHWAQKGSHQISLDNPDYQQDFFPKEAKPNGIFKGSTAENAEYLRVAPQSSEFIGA
T9 sequence (P00533 25-1210 L861Q): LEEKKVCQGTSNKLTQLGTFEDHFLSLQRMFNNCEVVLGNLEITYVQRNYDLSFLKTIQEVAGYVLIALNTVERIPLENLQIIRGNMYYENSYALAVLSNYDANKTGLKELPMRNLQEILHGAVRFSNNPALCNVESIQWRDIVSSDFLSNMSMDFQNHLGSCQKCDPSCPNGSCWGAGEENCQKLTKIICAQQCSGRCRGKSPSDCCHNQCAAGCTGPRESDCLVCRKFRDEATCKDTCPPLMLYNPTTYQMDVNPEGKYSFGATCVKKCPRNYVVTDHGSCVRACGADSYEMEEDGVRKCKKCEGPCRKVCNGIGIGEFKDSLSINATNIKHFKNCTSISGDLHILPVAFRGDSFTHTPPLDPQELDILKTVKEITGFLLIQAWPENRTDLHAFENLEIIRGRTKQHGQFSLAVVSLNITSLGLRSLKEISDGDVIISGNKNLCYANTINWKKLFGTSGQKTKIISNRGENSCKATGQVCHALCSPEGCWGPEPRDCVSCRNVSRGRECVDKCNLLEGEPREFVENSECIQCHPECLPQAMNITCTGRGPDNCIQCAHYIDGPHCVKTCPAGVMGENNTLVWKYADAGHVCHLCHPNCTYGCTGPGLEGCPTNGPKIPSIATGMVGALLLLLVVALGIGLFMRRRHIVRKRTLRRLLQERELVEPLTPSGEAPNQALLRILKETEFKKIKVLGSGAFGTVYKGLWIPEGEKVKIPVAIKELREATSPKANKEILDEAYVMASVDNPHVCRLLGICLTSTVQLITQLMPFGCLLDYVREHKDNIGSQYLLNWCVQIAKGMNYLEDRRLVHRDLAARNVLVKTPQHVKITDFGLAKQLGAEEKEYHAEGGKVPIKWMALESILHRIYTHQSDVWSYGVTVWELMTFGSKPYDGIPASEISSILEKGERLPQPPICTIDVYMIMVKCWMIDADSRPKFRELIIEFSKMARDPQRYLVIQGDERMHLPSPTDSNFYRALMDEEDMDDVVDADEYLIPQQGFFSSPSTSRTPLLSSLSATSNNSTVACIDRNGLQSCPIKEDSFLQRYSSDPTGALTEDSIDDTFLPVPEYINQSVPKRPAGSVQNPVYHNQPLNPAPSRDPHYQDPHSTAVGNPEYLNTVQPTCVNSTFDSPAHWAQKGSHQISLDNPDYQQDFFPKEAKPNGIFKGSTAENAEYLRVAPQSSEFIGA
T6 sequence (P04626 with tags, fused parts or gaps INS777CG limits assumed): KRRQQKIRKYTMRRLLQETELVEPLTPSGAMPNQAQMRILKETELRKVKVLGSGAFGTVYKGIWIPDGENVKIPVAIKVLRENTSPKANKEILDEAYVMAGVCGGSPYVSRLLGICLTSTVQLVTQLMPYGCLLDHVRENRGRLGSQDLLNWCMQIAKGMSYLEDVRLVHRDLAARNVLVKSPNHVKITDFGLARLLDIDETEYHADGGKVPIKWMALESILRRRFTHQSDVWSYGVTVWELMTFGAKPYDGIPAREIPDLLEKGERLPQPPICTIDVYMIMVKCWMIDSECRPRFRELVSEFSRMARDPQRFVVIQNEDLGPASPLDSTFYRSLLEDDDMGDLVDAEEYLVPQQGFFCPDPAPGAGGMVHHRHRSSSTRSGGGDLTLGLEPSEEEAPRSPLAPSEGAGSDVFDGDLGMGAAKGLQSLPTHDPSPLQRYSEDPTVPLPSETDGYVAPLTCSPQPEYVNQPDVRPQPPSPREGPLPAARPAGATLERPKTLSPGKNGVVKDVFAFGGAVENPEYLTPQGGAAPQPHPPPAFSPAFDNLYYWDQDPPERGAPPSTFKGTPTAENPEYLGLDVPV

Compound | pIC50 (EGFR (D770_N771insNPG)) | pIC50 (ERBB2 (D769Y)) | pIC50 (EGFR (A763_Y764insFQEA)) | pIC50 (EGFR (A763_Y764insFHEA)) | pIC50 (EGFR (G719D)) | pIC50 (ERBB2 (V777_G778insCG)) | pIC50 (EGFR (G719S)) | pIC50 (ERBB2 (V777L)) | pIC50 (EGFR (L861Q)) | pIC50 (EGFR (G719C)) | pIC50 (EGFR (D770GY)) | pIC50 [1] | pIC50 (EGFR (D761Y)) | further results
C=CC(=O)Nc1cccc(-n2c(=O)c(-c3ccccc3)nc3cnc(Nc4ccc(N5CCN(C)CC5)c(OC)c4)nc32)c1 [compound B] | 8.91 | 9.11 | 9.11 | 8.81 | 9.09 | 8.81 | 9.01 | 8.69 | 8.78 | 8.98 | 9.12 | 8.72 | 9.11 | 
C=CC(=O)Nc1cc(Nc2ncc(C(=O)OC(C)C)c(-c3cn(C)c4ccccc34)n2)c(OC)cc1N(C)CCN(C)C [TAK788, Mobocertinib] |  |  |  |  |  |  |  |  |  |  |  |  |  | GI50 [2]: 1.49 nM; GI50 (EGFR G719A BaF3): 4.66 nM; GI50 [3]: 1.53 nM; GI50 [4]: 4.73 nM; GI50 (EGFR H773_V774insH BaF3): 4.44 nM; GI50 (EGFR L861Q BaF3): 2.55 nM
C=CC(=O)Nc1cccc(-n2c(=O)c(-c3ccccc3)nc3cnc(Nc4ccc(N5CCN(C)CC5)cc4OC)nc32)c1 [Compound 1] | 9.64 | 9.46 | 9.54 | 9.40 |  | 9.66 | 9.44 | 9.51 |  | 9.29 |  | 9.31 |  | pIC50 (EGFR (d747-749/A750P)): 9.54; pIC50 (EGFR (d746-750)): 9.08; pIC50 (EGFR (L858R)): 9.77; GI50 [2]: 1.63 nM; GI50 (EGFR G719A BaF3): 0.58 nM; GI50 [3]: 0.99 nM; GI50 [4]: 5.59 nM; GI50 (EGFR H773_V774insH BaF3): 5.42 nM; GI50 (EGFR L861Q BaF3): 0.98 nM; pIC50 (EGFR): 10.10
C=CC(=O)N1CCC(Oc2cc3c(Nc4ccc(Cl)c(Cl)c4F)ncnc3cc2OC)CC1 [Poziotinib] |  | 9.68 |  |  |  | 10.05 |  | 9.68 |  |  |  |  |  | 
C=CC(=O)Nc1cccc(-n2c(=O)c(-c3ccccc3)nc3cnc(Nc4ccc(N(C)CCN(C)C)cc4OC)nc32)c1 [compound A] | 9.28 | 9.10 | 9.46 | 9.17 | 8.66 | 9.46 | 8.84 | 9.11 | 8.69 | 8.96 | 9.55 | 9.17 | 9.47 | 
C=CC(=O)Nc1cccc(-n2c(=O)c(-c3ccc(OC)cc3)nc3cnc(Nc4ccc(N5CCN(C)CC5)cc4OC)nc32)c1 [compound E] | 8.76 | 8.59 | 8.63 | 9.11 | 8.79 | 8.42 | 8.78 | 9.09 | 9.06 | 8.79 | 9.00 | 8.80 | 9.21 | 
C=CC(=O)Nc1cccc(-n2c(=O)c(-c3ccc(F)cc3)nc3cnc(Nc4ccc(N5CCN(C)CC5)cc4OC)nc32)c1 [compound D] | 8.56 | 9.11 | 8.72 | 9.24 | 8.54 | 8.71 | 8.52 | 8.73 | 8.98 | 8.62 | 9.06 | 9.00 | 9.35 | 
C=CC(=O)Nc1cccc(-n2c(=O)c(C3CCCCC3)nc3cnc(Nc4ccc(N5CCN(C)CC5)cc4OC)nc32)c1 [compound C] | 8.44 | 8.34 | 9.35 | 9.03 | 8.42 | 8.56 | 8.56 | 8.79 | 9.03 | 8.75 | 9.01 | 8.61 | 9.00 | 
